Reference: patent US8877748B2, “Heterocyclic fused anthraquinone derivatives, manufacturing method and pharmaceutical composition using thereof” (National Defense Medical Center, priority 2012, dated 2014)

Columns and labels:
[1] = tested on: MALME-3M; experiment: NCI one-dose screening, melanoma MALME-3M; format: cell-based, human; details: 10 μM
[2] = tested on: NCI-H460; experiment: NCI one-dose screening, non-small cell lung cancer NCI-H460; format: cell-based, human; details: 10 μM
[3] = tested on: UO-31; experiment: NCI one-dose screening, renal cancer UO-31; format: cell-based, human; details: 10 μM
[4] = tested on: COLO 205; experiment: NCI one-dose screening, colon cancer COLO 205; format: cell-based, human; details: 10 μM
[5] = tested on: HOP-92; experiment: NCI one-dose screening, non-small cell lung cancer HOP-92; format: cell-based, human; details: 10 μM
[6] = tested on: RXF, 393; experiment: NCI one-dose screening, renal cancer RXF, 393; format: cell-based, human; details: 10 μM
[7] = tested on: T-47D; experiment: NCI one-dose screening, breast cancer T-47D; format: cell-based, human; details: 10 μM
[8] = tested on: OVCAR-8; experiment: NCI one-dose screening, ovarian cancer OVCAR-8; format: cell-based, human; details: 10 μM
[9] = tested on: MDA-MB-468; experiment: NCI one-dose screening, breast cancer MDA-MB-468; format: cell-based, human; details: 10 μM
[10] = tested on: NCl/ADR-RES; experiment: NCI one-dose screening, breast cancer NCl/ADR-RES; format: cell-based, human; details: 10 μM; listed under Ovarian cancer
[11] = tested on: MDA-MB-231/ATCC; experiment: NCI one-dose screening, breast cancer MDA-MB-231/ATCC; format: cell-based, human; details: 10 μM
[12] = tested on: A549/ATCC; experiment: NCI one-dose screening, non-small cell lung cancer A549/ATCC; format: cell-based, human; details: 10 μM
[13] = tested on: HCC-2998; experiment: NCI one-dose screening, colon cancer HCC-2998; format: cell-based, human; details: 10 μM
[14] = tested on: 786-O; experiment: NCI one-dose screening, renal cancer 786-O; format: cell-based, human; details: 10 μM
[15] = tested on: EKVX; experiment: NCI one-dose screening, non-small cell lung cancer EKVX; format: cell-based, human; details: 10 μM
[16] = tested on: MDA, -MB-435; experiment: NCI one-dose screening, breast cancer MDA, -MB-435; format: cell-based, human; details: 10 μM; listed under Melanoma
[17] = tested on: UACC-257; experiment: NCI one-dose screening, melanoma UACC-257; format: cell-based, human; details: 10 μM
[18] = tested on: HOP-62; experiment: NCI one-dose screening, non-small cell lung cancer HOP-62; format: cell-based, human; details: 10 μM
[19] = tested on: PRMI-8226 cell line; experiment: NCI one-dose screening, leukemia PRMI-8226; format: cell-based, human; details: 10 μM
[20] = tested on: U251; experiment: NCI one-dose screening, CNS cancer U251; format: cell-based, human; details: 10 μM
[21] = tested on: HCT-116; experiment: NCI one-dose screening, colon cancer HCT-116; format: cell-based, human; details: 10 μM
[22] = tested on: CCRF-CEM; experiment: NCI screening platform one-dose single concentration screening, leukemia CCRF-CEM; format: cell-based, human; details: 10 μM
[23] = tested on: NCI-H226; experiment: NCI one-dose screening, non-small cell lung cancer NCI-H226; format: cell-based, human; details: 10 μM
[24] = tested on: HL-60, TB; experiment: NCI one-dose screening, leukemia HL-60, TB; format: cell-based, human; details: 10 μM
[25] = tested on: SNB-19; experiment: NCI one-dose screening, CNS cancer SNB-19; format: cell-based, human; details: 10 μM
[26] = tested on: OVCAR-5; experiment: NCI one-dose screening, ovarian cancer OVCAR-5; format: cell-based, human; details: 10 μM
[27] = tested on: NCI-H23; experiment: NCI one-dose screening, non-small cell lung cancer NCI-H23; format: cell-based, human; details: 10 μM
[28] = tested on: TK-10; experiment: NCI one-dose screening, renal cancer TK-10; format: cell-based, human; details: 10 μM
[29] = tested on: SN12C; experiment: NCI one-dose screening, renal cancer SN12C; format: cell-based, human; details: 10 μM
[30] = tested on: NCI-H522; experiment: NCI one-dose screening, non-small cell lung cancer NCI-H522; format: cell-based, human; details: 10 μM
[31] = tested on: SF-295; experiment: NCI one-dose screening, CNS cancer SF-295; format: cell-based, human; details: 10 μM
[32] = tested on: LOX IMVI; experiment: NCI one-dose screening, melanoma LOX IMVI; format: cell-based, human; details: 10 μM
[33] = tested on: SR; experiment: NCI one-dose screening, leukemia SR; format: cell-based, human; details: 10 μM
[34] = tested on: K562cell line; experiment: NCI one-dose screening, leukemia K562; format: cell-based, human; details: 10 μM
[35] = tested on: HCT-15; experiment: NCI one-dose screening, colon cancer HCT-15; format: cell-based, human; details: 10 μM
[36] = tested on: HT29; experiment: NCI one-dose screening, colon cancer HT29; format: cell-based, human; details: 10 μM
[37] = tested on: MCF7; experiment: NCI one-dose screening, breast cancer MCF7; format: cell-based, human; details: 10 μM
[38] = tested on: UACC-62; experiment: NCI one-dose screening, melanoma UACC-62; format: cell-based, human; details: 10 μM
[39] = tested on: M14; experiment: NCI one-dose screening, melanoma M14; format: cell-based, human; details: 10 μM
[40] = tested on: OVCAR-3; experiment: NCI one-dose screening, ovarian cancer OVCAR-3; format: cell-based, human; details: 10 μM
[41] = tested on: ACHN; experiment: NCI one-dose screening, renal cancer ACHN; format: cell-based, human; details: 10 μM
[42] = tested on: MOLT-4; experiment: NCI one-dose screening, leukemia MOLT-4; format: cell-based, human; details: 10 μM
[43] = tested on: SF-268; experiment: NCI one-dose screening, CNS cancer SF-268; format: cell-based, human; details: 10 μM
[44] = tested on: SK-MEL-28; experiment: NCI one-dose screening, melanoma SK-MEL-28; format: cell-based, human; details: 10 μM
[45] = tested on: CAKI-1; experiment: NCI one-dose screening, renal cancer CAKI-1; format: cell-based, human; details: 10 μM
[46] = tested on: BT-549; experiment: NCI one-dose screening, breast cancer BT-549; format: cell-based, human; details: 10 μM
[47] = tested on: SK-MEL-2; experiment: NCI one-dose screening, melanoma SK-MEL-2; format: cell-based, human; details: 10 μM
[48] = tested on: human tumor cell lines; experiment: NCI one-dose screening, Mean / Delta / Range of growth percent over all tested cell lines; format: cell-based; details: 10 μM
[49] = tested on: DU145; experiment: NCI one-dose screening, prostate cancer DU145; format: cell-based, human; details: 10 μM
[50] = tested on: OVCAR-4; experiment: NCI one-dose screening, ovarian cancer OVCAR-4; format: cell-based, human; details: 10 μM
[51] = tested on: PC-3; experiment: NCI one-dose screening, prostate cancer PC-3; format: cell-based, human; details: 10 μM
[52] = tested on: PC-3 prostate cancer cell line; experiment: SRB assay cell viability, PC-3 prostate cancer cell line; format: cell-based, human; details: Homo sapiens, PC-3 prostate cancer cell line, Table II prints no unit, μM printed, read-out: SRB assay: 50% inhibition of cancer cell proliferation of sample concentration (IC50) of PC-3 prostate cancer cell line
[53] = tested on: SK-MEL-5; experiment: NCI one-dose screening, melanoma SK-MEL-5; format: cell-based, human; details: 10 μM
[54] = tested on: SF-539; experiment: NCI one-dose screening, CNS cancer SF-539; format: cell-based, human; details: 10 μM
[55] = tested on: IGROV1; experiment: NCI one-dose screening, ovarian cancer IGROV1; format: cell-based, human; details: 10 μM
[56] = tested on: SNB-75; experiment: NCI one-dose screening, CNS cancer SNB-75; format: cell-based, human; details: 10 μM
[57] = tested on: NCI-H322M; experiment: NCI one-dose screening, non-small cell lung cancer NCI-H322M; format: cell-based, human; details: 10 μM; Non-small cell lung cancer
[58] = tested on: HS 578-T; experiment: NCI one-dose screening, breast cancer HS 578-T; format: cell-based, human; details: 10 μM; Breast cancer
[59] = tested on: KM12; experiment: NCI one-dose screening, colon cancer KM12; format: cell-based, human; details: 10 μM

Compound: O=C1c2ccccc2C(=O)c2c1cc(Nc1ccc(Cl)cc1)c1nsnc21 [C60, 4-(4-chloro-phenylamino)anthra[2,1-c] [1,2,5]thiadiazol-6,11-dione]
- Growth Percent MALME-3M [1]: 61.29%
- Growth Percent NCI-H460 [2]: 29.27%
- Growth Percent UO-31 [3]: 49.04%
- Growth Percent COLO 205 [4]: 94.87%
- Growth Percent HOP-92 [5]: 88.03%
- Growth Percent RXF 393 [6]: 66.60%
- Growth Percent T-47D [7]: 65.23%
- Growth Percent OVCAR-8 [8]: 45.71%
- Growth Percent MDA-MB-468 [9]: 32.52%
- Growth Percent NCI/ADR-RES [10]: 55.91%
- Growth Percent MDA-MB-231/ATCC [11]: 57.00%
- Growth Percent A549/ATCC [12]: 72.79%
- Growth Percent HCC-2998 [13]: 91.26%
- Growth Percent 786-0 [14]: 95.95%
- Growth Percent EKVX [15]: 81.16%
- Growth Percent MDA-MB-435 [16]: 72.21%
- Growth Percent UACC-257 [17]: 69.64%
- Growth Percent HOP-62 [18]: 71.23%
- Growth Percent RPMI-8226 [19]: 36.51%
- Growth Percent U251 [20]: 35.47%
- Growth Percent HCT-116 [21]: 40.51%
- Growth Percent CCRF-CEM [22]: 44.80%
- Growth Percent NCI-H226 [23]: 66.43%
- Growth Percent HL-60(TB) [24]: 23.13%
- Growth Percent SNB-19 [25]: 87.03%
- Growth Percent OVCAR-5 [26]: 121.21%
- Growth Percent NCI-H23 [27]: 58.67%
- Growth Percent TK-10 [28]: 100.37%
- Growth Percent SN12C [29]: 81.98%
- Growth Percent NCI-H522 [30]: 49.77%
- Growth Percent SF-295 [31]: 78.76%
- Growth Percent LOX IMVI [32]: 27.09%
- Growth Percent SR [33]: 19.52%
- Growth Percent K562 [34]: 32.82%
- Growth Percent HCT-15 [35]: 37.73%
- Growth Percent HT29 [36]: 91.07%
- Growth Percent MCF7 [37]: 59.01%
- Growth Percent UACC-62 [38]: 64.65%
- Growth Percent M14 [39]: 106.75%
- Growth Percent OVCAR-3 [40]: 76.23%
- Growth Percent ACHN [41]: 70.10%
- Growth Percent MOLT-4 [42]: 11.82%
- Growth Percent SF-268 [43]: 63.91%
- Growth Percent SK-MEL-28 [44]: 77.13%
- Growth Percent CAKI-1 [45]: 58.59%
- Growth Percent BT-549 [46]: 96.78%
- Growth Percent SK-MEL-2 [47]: 84.09%
- Growth Percent Delta ([48]; delta over all cell lines): 53.61%
- Growth Percent Mean ([48]; mean over all cell lines): 63.19%
- Growth Percent Range ([48]; range over all cell lines): 111.63%
- Growth Percent DU145 [49]: 87.28%
- Growth Percent OVCAR-4 [50]: 9.58%
- Growth Percent PC-3 [51]: 42.48%
- IC50 [52]: 9.5 µM
- Growth Percent SK-MEL-5 [53]: 29.92%
- Growth Percent SF-539 [54]: 69.85%
- Growth Percent IGROV1 [55]: 55.18%
- Growth Percent SNB-75 [56]: 69.41%
- Growth Percent NCI-H322M [57]: 91.20%
- Growth Percent HS 578T [58]: 76.50%
- Growth Percent KM12 [59]: 71.40%
